In patent publication US20250188069A1, “COMPOUNDS AND METHODS FOR DEGRADING CASEIN KINASE 1 ALPHA” (PIN THERAPEUTICS, INC., priority 2022, published 2025):
pIC50: −log10 of the molar value. Where a name gives a salt, the structure may show the parent alone. Read-outs that look alike come from different tables or passages of the source.

Tests used:
CK1α = CK1α (Homo sapiens, UniProt P48729+Q96SW2); assay: CK1α degradation, Jess assay in MV-4-11 cells; assay type: cell-based; design: CK1α levels were determined in MV-4-11 cells using Jess (Protein Simple); host or cells: MV-4-11; dose or concentration left out as unconfirmed; settings: MV4-11, % reduction of CK1α compared to DMSO, MV-4-11 cells for 16 hours, normalized to β-actin, read-out: CK1α degradation classification
Experimental: MM.1S and NCCIT cells were obtained from ATCC and grown in RPMI-1640 supplemented with 10% FBS. MV-4-11 cells were obtained from ATCC and grown in IMDM supplemented with 10% FBS. The cells were maintained at 37° C. under 5% CO2.
Compounds of the present disclosure was added to cells (final DMSO concentration of 0.1%) and incubated for 16 hours. CK1α levels were determined in MV-4-11 cells using Jess (Protein Simple). Briefly, whole cell lysates were prepared in lysis buffer (1×RIPA buffer [Thermo, 89900], 2 mM MgCl2 [Sigma, M1028], 0.05% Benzonase [Sigma, E1014], 1× Pierce protease inhibitor tablets EDTA-free [Thermo, A32965]). 6-20 μg of the lysates were analyzed using Jess with antibodies against CK1α (Abcam, ab108296) and β-actin (R&D Systems, MAB8929). Protein levels were normalized to β-actin levels. DC50 values were obtained using four-parameter non-linear regressions using Prism (GraphPad).
The efficacy of CK1α degradation of a part of compounds of the present disclosure was determined by treating MV-4-11 cells at […] (final DMSO concentration of 0.1%) for 16 hours. CK1α levels were determined using Jess and normalized to β-actin levels. The compounds are classified based on amount of CK1α degradation (% reduction of CK1α compared to DMSO) as follows. • A: Degradation is greater than or equal to 75%; • B: Degradation is less than […] & greater than or equal to 50%; • C: Degradation is less than […]; • ND: not determined.

MV-4-11 cells = assay: AML cell viability assay (RealTime-Glo); assay type: cell-based; settings: Homo sapiens, read-out: Cell viability classification
[1] = MV4-11, IC50 class, MV-4-11 cells, RealTime-Glo after 44 hrs of treatment (TABLE 1)

CK1α, sequence (P48729 whole entry): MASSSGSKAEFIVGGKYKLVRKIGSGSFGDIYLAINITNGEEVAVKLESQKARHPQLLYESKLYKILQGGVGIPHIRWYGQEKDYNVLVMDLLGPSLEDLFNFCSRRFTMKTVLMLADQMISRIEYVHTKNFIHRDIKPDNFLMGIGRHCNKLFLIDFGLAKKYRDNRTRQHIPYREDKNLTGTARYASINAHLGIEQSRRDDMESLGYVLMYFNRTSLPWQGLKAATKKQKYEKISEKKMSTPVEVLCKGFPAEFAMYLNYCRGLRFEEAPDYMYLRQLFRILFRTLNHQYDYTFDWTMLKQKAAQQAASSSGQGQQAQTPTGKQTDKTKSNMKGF
CK1α, sequence (Q96SW2 whole entry): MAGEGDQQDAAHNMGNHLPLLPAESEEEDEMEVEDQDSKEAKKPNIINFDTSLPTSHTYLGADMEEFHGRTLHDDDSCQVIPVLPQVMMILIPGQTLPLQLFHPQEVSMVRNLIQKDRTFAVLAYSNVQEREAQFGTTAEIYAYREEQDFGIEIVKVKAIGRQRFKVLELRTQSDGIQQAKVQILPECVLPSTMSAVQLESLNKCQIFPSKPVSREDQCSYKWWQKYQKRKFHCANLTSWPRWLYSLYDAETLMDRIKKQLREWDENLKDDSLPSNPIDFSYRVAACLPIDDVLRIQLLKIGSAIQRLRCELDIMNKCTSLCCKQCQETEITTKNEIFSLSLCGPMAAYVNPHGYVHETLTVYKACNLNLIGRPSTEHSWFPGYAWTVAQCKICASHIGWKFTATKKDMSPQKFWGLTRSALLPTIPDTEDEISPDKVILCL
CK1α, sequence (Q16531 whole entry partner): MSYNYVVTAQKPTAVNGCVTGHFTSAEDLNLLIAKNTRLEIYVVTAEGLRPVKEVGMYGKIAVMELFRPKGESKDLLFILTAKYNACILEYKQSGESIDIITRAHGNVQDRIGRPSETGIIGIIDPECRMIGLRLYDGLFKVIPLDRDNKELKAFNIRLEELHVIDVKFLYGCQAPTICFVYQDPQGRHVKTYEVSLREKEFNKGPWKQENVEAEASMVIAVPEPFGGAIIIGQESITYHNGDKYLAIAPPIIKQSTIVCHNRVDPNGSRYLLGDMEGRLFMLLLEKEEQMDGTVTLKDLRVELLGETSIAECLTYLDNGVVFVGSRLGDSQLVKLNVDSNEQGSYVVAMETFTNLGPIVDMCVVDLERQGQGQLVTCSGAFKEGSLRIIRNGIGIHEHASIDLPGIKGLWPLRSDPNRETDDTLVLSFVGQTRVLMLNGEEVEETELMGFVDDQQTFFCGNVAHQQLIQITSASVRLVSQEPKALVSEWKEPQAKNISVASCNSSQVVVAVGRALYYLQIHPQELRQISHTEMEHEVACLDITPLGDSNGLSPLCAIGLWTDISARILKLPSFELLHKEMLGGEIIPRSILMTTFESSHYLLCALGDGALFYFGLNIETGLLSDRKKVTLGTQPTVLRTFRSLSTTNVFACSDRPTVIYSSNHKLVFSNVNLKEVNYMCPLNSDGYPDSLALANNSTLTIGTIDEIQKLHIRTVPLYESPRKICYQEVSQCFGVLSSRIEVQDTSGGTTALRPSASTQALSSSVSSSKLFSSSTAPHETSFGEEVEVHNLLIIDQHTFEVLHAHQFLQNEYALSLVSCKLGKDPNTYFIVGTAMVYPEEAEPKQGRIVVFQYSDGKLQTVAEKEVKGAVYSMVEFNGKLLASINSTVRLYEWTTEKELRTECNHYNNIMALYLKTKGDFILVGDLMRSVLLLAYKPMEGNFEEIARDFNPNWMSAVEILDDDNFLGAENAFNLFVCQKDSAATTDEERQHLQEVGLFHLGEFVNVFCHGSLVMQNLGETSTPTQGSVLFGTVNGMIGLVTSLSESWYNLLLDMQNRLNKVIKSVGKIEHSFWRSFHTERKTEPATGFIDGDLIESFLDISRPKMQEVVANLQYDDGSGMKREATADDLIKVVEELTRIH

Row | SMILES | Dmax (CK1α) | pIC50 (MV-4-11 cells; [1]) | pIC50 (MV-4-11 cells; MV4-11, 44 h)
1 | NC[C@H]1CC[C@@H](N(CCC2CC2)c2cccc3c2CN(C2CCC(=O)NC2=O)C3=O)CC1 (stereo partly shown) [Compound 358, 3-(4-(((1s,4s)-4-(aminomethyl)cyclohexyl)(2-cyclopropylethyl)amino)-1-oxoisoindolin-2-yl)piperidine-2,6-dione] | > 75% | > 7.00 | 
2 | CCCCCCN(CCCCN)c1cccc2c1CN(C1CCC(=O)NC1=O)C2=O (stereo not shown) [Compound 48, 3-(4-((4-aminobutyl)(hexyl)amino)-1-oxoisoindolin-2-yl)piperidine-2,6-dione] | > 75% | > 7.00 | 
3 | CCCCN(CC#CCN)c1cccc2c1CN(C1CCC(=O)NC1=O)C2=O (stereo not shown) [Compound 115, 3-(4-((4-aminobut-2-yn-1-yl)(butyl)amino)-1-oxoisoindolin-2-yl)piperidine-2,6-dione] | 50 to 7500% | < 6.00 | 
4 | CCCCCN(c1cccc2c1CN(C1CCC(=O)NC1=O)C2=O)[C@@H]1CC[C@H](N)C1 (stereo partly drawn) [Compound 324, 3-(4-(((1R,3S)-3-aminocyclopentyl)(pentyl)amino)-1-oxoisoindolin-2-yl)piperidine-2,6-dione] | > 75% | > 7.00 | 
5 | CCCCN(CCCCN)c1cccc2c1CN(C1CCC(=O)NC1=O)C2=O (stereo not shown) [Compound 46, 3-(4-((4-aminobutyl)(butyl)amino)-1-oxoisoindolin-2-yl)piperidine-2,6-dione] | > 75% | > 7.00 | 
6 | CCCCCN(c1cccc2c1CN(C1CCC(=O)NC1=O)C2=O)[C@H]1CC[C@H](N)CC1 (stereo partly shown) [Compound 88, 3-(4-(((1r,4r)-4-aminocyclohexyl)(pentyl)amino)-1-oxoisoindolin-2-yl)piperidine-2,6-dione, HCl] | > 75% | > 7.00 | 
7 | CCCCCN(CCCCNC)c1cccc2c1CN(C1CCC(=O)NC1=O)C2=O (stereo not shown) [Compound 80, 3-(4-((4-(methylamino)butyl)(pentyl)amino)-1-oxoisoindolin-2-yl)piperidine-2,6-dione.Hydrochloride] | > 75% | > 7.00 | 
8 | CCCCCN(c1cccc2c1CN(C1CCC(=O)NC1=O)C2=O)[C@H]1CC[C@@H](N)CC1 (stereo partly drawn) [Compound 87, 3-(4-(((1S,4S)-4-aminocyclohexyl)(pentyl)amino)-1-oxoisoindolin-2-yl)piperidine-2,6-dione hydrochloride] | > 75% | > 7.00 | 
9 | CCCCCN(CCCCNC(C)=O)c1cccc2c1CN(C1CCC(=O)NC1=O)C2=O (stereo not shown) [Compound 82, N-(4-((2-(2,6-dioxopiperidin-3-yl)-1-oxoisoindolin-4-yl)(pentyl)amino)butyl)acetamide] | 50 to 7500% | > 7.00 | 
10 | CC#CCN(CCCCN)c1cccc2c1CN(C1CCC(=O)NC1=O)C2=O (stereo not shown) [Compound 116, 3-(4-((4-aminobutyl)(but-2-yn-1-yl)amino)-1-oxoisoindolin-2-yl)piperidine-2,6-dione] | > 75% | > 7.00 | 
11 | CCCCN(C/C=C/CN)c1cccc2c1CN(C1CCC(=O)NC1=O)C2=O (stereo not shown) [Compound 66, (E)-3-(4-((4-aminobut-2-en-1-yl)(butyl)amino)-1-oxoisoindolin-2-yl)piperidine-2,6-dione] | 50 to 7500% | 6.00 to 7.00 | 
12 | CCCCCN(c1cccc2c1CN(C1CCC(=O)NC1=O)C2=O)[C@@H]1CC[C@@H](N)C1 (stereo partly drawn) [Compound 323, 3-(4-(((1R,3R)-3-aminocyclopentyl)(pentyl)amino)-1-oxoisoindolin-2-yl)piperidine-2,6-dione] | > 75% | > 7.00 | 
13 | CCCCN(C/C=C\CN)c1cccc2c1CN(C1CCC(=O)NC1=O)C2=O (stereo not shown) [Compound 67, (Z)-3-(4-((4-aminobut-2-en-1-yl)(butyl)amino)-1-oxoisoindolin-2-yl)piperidine-2,6-dione] | > 75% | > 7.00 | 
14 | NCCCCN(CCCCCCO)c1cccc2c1CN(C1CCC(=O)NC1=O)C2=O (stereo not shown) [Compound 56, 3-(4-((4-aminobutyl)(6-hydroxyhexyl)amino)-1-oxoisoindolin-2-yl)piperidine-2,6-dione] | 50 to 7500% | 6.00 to 7.00 | 
15 | NC[C@H]1CC[C@@H](N(CCCC2CCOCC2)c2cccc3c2CN(C2CCC(=O)NC2=O)C3=O)CC1 (stereo partly shown) [Compound 333, 3-(4-(((1s,4s)-4-(aminomethyl)cyclohexyl)(3-(tetrahydro-2H-pyran-4-yl)propyl)amino)-1-oxoisoindolin-2-yl)piperidine-2,6-dione] | > 75% | > 7.00 | 
16 | N[C@H]1CC[C@H](N(CCCc2ccccc2)c2cccc3c2CN(C2CCC(=O)NC2=O)C3=O)CC1 (stereo partly shown) [Compound 251, 3-(4-(((1r,4r)-4-aminocyclohexyl)(3-phenylpropyl)amino)-1-oxoisoindolin-2-yl)piperidine-2,6-dione hydrochloride] | > 75% | > 7.00 | 
17 | CCCCCN(c1cccc2c1CN(C1CCC(=O)NC1=O)C2=O)[C@H]1CC[C@@H](CN)CC1 (stereo partly drawn) [Compound 89, 3-(4-(((1S,4S)-4-(aminomethyl)cyclohexyl)(pentyl)amino)-1-oxoisoindolin-2-yl)piperidine-2,6-dione hydrochloride] | > 75% | > 7.00 | 
18 | CC(C)CCCCCN(CCCCN)c1cccc2c1CN(C1CCC(=O)NC1=O)C2=O (stereo not shown) [Compound 52, 3-(4-((4-aminobutyl)(6-methylheptyl)amino)-1-oxoisoindolin-2-yl)piperidine-2,6-dione] | > 75% | 6.00 to 7.00 | 
19 | CCCN(CCCCN)c1cccc2c1CN(C1CCC(=O)NC1=O)C2=O (stereo not shown) [Compound 4, 3-(4-((4-aminobutyl)(propyl)amino)-1-oxoisoindolin-2-yl)piperidine-2,6-dione] | > 75% | > 7.00 | 
20 | C/C=C/CN(CCCCN)c1cccc2c1CN(C1CCC(=O)NC1=O)C2=O (stereo not shown) [Compound 68, (E)-3-(4-((4-aminobutyl)(but-2-en-1-yl)amino)-1-oxoisoindolin-2-yl)piperidine-2,6-dione] | > 75% | > 7.00 | 
21 | CCCN(CCCCCN)c1cccc2c1CN(C1CCC(=O)NC1=O)C2=O (stereo not shown) [Compound 57, 3-(4-((5-aminopentyl)(propyl)amino)-1-oxoisoindolin-2-yl)piperidine-2,6-dione] | > 75% | > 7.00 | 
22 | C/C=C\CN(CCCCN)c1cccc2c1CN(C1CCC(=O)NC1=O)C2=O (stereo not shown) [Compound 69, (Z)-3-(4-((4-aminobutyl)(but-2-en-1-yl)amino)-1-oxoisoindolin-2-yl)piperidine-2,6-dione] | 50 to 7500% | 6.00 to 7.00 | 
23 | CCCN(CCCCC(=O)NC)c1cccc2c1CN(C1CCC(=O)NC1=O)C2=O (stereo not shown) [Compound 63, 5-((2-(2,6-dioxopiperidin-3-yl)-1-oxoisoindolin-4-yl)(propyl)amino)-N-methylpentanamide] | > 75% | > 7.00 | 
24 | CCCN(CCCCNC(C)=O)c1cccc2c1CN(C1CCC(=O)NC1=O)C2=O (stereo not shown) [Compound 50, N-(4-((2-(2,6-dioxopiperidin-3-yl)-1-oxoisoindolin-4-yl)(propyl)amino)butyl)acetamide] | > 75% | > 7.00 | 
25 | CCCCCN(CCCCN)c1cccc2c1CN(C1CCC(=O)NC1=O)C2=O (stereo not shown) [Compound 47, 3-(4-((4-aminobutyl)(pentyl)amino)-1-oxoisoindolin-2-yl)piperidine-2,6-dione] | > 75% |  | > 7.00
26 | NCCCCN(CCCCCO)c1cccc2c1CN(C1CCC(=O)NC1=O)C2=O (stereo not shown) [Compound 51, 3-(4-((4-aminobutyl)(5-hydroxypentyl)amino)-1-oxoisoindolin-2-yl)piperidine-2,6-dione] | 50 to 7500% | 6.00 to 7.00 | 
27 | NCCCCCCN(CCCCN)c1cccc2c1CN(C1CCC(=O)NC1=O)C2=O (stereo not shown) [Compound 60, 3-(4-((4-aminobutyl)(6-aminohexyl)amino)-1-oxoisoindolin-2-yl)piperidine-2,6-dione] | > 75% | > 7.00 | 
28 | NCCCCCN(CCCCN)c1cccc2c1CN(C1CCC(=O)NC1=O)C2=O (stereo not shown) [Compound 55, 3-(4-((4-aminobutyl)(5-aminopentyl)amino)-1-oxoisoindolin-2-yl)piperidine-2,6-dione dihydrochloride] | > 75% | 6.00 to 7.00 | 
29 | CCCCCN(c1cccc2c1CN(C1CCC(=O)NC1=O)C2=O)[C@H]1CC[C@H](CN)CC1 (stereo partly drawn) [Compound 90, 3-(4-(((1R,4R)-4-(aminomethyl)cyclohexyl)(pentyl)amino)-1-oxoisoindolin-2-yl)piperidine-2,6-dione hydrochloride] | > 75% | > 7.00 | 
